What was measured:
Experiment in all cases: Test B pre-/postemergence plant response
Type in all cases: in vivo
[1] = test system: large crabgrass (Digitaria sanguinalis)
In short: (§1)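 Visual injury, 0–100 scale (100 = complete control), rated against controls after 13 to 15 days in greenhouse. Pre-emergence: seeds in loam/sand soil, treated at planting. Post-emergence: 1- to 4-leaf plants (2 to 18 cm) in peat/vermiculite medium. Compounds formulated in non-phytotoxic solvent with surfactant.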

[2] = test system: blackgrass (Alopecurus myosuroides)
In short: as §1

[3] = test system: wild oat (Avena fatua)
In short: as §1

[4] = test system: goosegrass (Eleusine indica)
In short: as §1

[5] = test system: johnsongrass (Sorghum halepense)
In short: as §1

[6] = test system: yellow nutsedge (Cyperus esculentus)
In short: as §1

[7] = test system: Surinam grass (Brachiaria decumbens)
In short: as §1

[8] = test system: kochia (Kochia scoparia)
In short: as §1

[9] = test system: lambsquarters (Chenopodium album)
In short: as §1

[10] = test system: pigweed (Amaranthus retroflexus)
In short: as §1

[11] = test system: soybean (Glycine max)
In short: as §1

[12] = test system: velvetleaf (Abutilon theophrasti)
In short: as §1

[13] = test system: morningglory (Ipomoea coccinea)
In short: as §1

[14] = test system: downy bromegrass (Bromus tectorum)
In short: as §1

[15] = test system: corn (Zea mays)
In short: as §1

[16] = test system: green foxtail (Setaria viridis)
In short: as §1

[17] = test system: woolly cupgrass (Eriochloa villosa)
In short: as §1

[18] = 250 g ai/ha, Preemergence, 0 to 100 scale
[19] = Postemergence, 31 g ai/ha, scale 0 to 100 (0 no effect, 100 complete control)
[20] = Postemergence, 62 g ai/ha, scale 0 (no effect) to 100 (complete control), 13 to 15 days
[21] = Postemergence, 125 g ai/ha, visual rating after 13 to 15 days, scale 0 (no effect) to 100 (complete control)
[22] = Postemergence, 250 g ai/ha, scale 0 to 100
[23] = Preemergence, 31 g ai/ha, scale 0 to 100 (0 no effect, 100 complete control)
[24] = Preemergence, 62 g ai/ha, scale 0 to 100, 0 no effect, 100 complete control
[25] = Preemergence, 125 g ai/ha, 0 to 100 scale

With “5-[(2-hydroxy-6-oxo-1-cyclohexen-1-yl)carbonyl]-3-phenyl-2-(3-pyridinyl)-4(3H)-pyrimidone [Compound 113]” the “Plant response rating, Crabgrass, Large” value [1, 18] was 95, the “Plant response rating, Crabgrass, Large” value [1, 19] was 30 and the “Plant response rating, Crabgrass, Large” value [1, 20] was 45. The “Plant response rating, Crabgrass, Large” value [1, 21] was 45, the “Crabgrass, Large plant response rating” value [1, 22] was 60 and the “Plant response rating, Crabgrass, Large” value [1, 23] was 0. For the same substance, the “Plant response rating, Crabgrass, Large” value [1, 24] was 0, the “Crabgrass, Large plant response rating” value [1, 25] was 45 and the “Plant response rating, Blackgrass” value [2, 18] was 0. The “Plant response rating, Blackgrass” value [2, 19] was 0, the “Plant response rating, Blackgrass” value [2, 20] was 0 and the “Plant response rating, Blackgrass” value [2, 21] was 0. The “Blackgrass plant response rating” value [2, 22] was 5, the “Plant response rating, Blackgrass” value [2, 23] was 0 and the “Plant response rating, Blackgrass” value [2, 24] was 0. The “Blackgrass plant response rating” value [2, 25] was 0, the “Plant response rating, Oat, Wild” value [3, 18] was 0 and the “Plant response rating, Oat, Wild” value [3, 19] was 0. For the same substance, the “Plant response rating, Oat, Wild” value [3, 20] was 0, the “Plant response rating, Oat, Wild” value [3, 21] was 0 and the “Oat, Wild plant response rating” value [3, 22] was 10. The “Plant response rating, Oat, Wild” value [3, 23] was 0, the “Plant response rating, Oat, Wild” value [3, 24] was 0 and the “Oat, Wild plant response rating” value [3, 25] was 0. For the same substance, the “Plant response rating, Goosegrass” value [4, 18] was 60, the “Plant response rating, Goosegrass” value [4, 19] was 20 and the “Plant response rating, Goosegrass” value [4, 20] was 25. For the same substance, the “Plant response rating, Goosegrass” value [4, 21] was 35, the “Goosegrass plant response rating” value [4, 22] was 35 and the “Plant response rating, Goosegrass” value [4, 23] was 10. The “Goosegrass plant response rating” value [4, 25] was 45, the “Plant response rating, Johnsongrass” value [5, 18] was 0 and the “Plant response rating, Johnsongrass” value [5, 19] was 0. The “Plant response rating, Johnsongrass” value [5, 20] was 0, the “Plant response rating, Johnsongrass” value [5, 21] was 0 and the “Johnsongrass plant response rating” value [5, 22] was 0. The “Plant response rating, Johnsongrass” value [5, 23] was 0, the “Plant response rating, Johnsongrass” value [5, 24] was 0 and the “Johnsongrass plant response rating” value [5, 25] was 0. The “Plant response rating, Nutsedge, Yellow” value [6, 18] was 55, the “Plant response rating, Nutsedge, Yellow” value [6, 19] was 0 and the “Plant response rating, Nutsedge, Yellow” value [6, 20] was 0. For the same substance, the “Plant response rating, Nutsedge, Yellow” value [6, 21] was 0, the “Nutsedge, Yellow plant response rating” value [6, 22] was 0 and the “Plant response rating, Nutsedge, Yellow” value [6, 23] was 0. For the same substance, the “Plant response rating, Nutsedge, Yellow” value [6, 24] was 10, the “Nutsedge, Yellow plant response rating” value [6, 25] was 15 and the “Plant response rating, Surinam Grass” value [7, 18] was 10. The “Plant response rating, Surinam Grass” value [7, 19] was 0, the “Plant response rating, Surinam Grass” value [7, 20] was 10 and the “Plant response rating, Surinam Grass” value [7, 21] was 20. For the same substance, the “Surinam Grass plant response rating” value [7, 22] was 25, the “Plant response rating, Surinam Grass” value [7, 23] was 0 and the “Plant response rating, Surinam Grass” value [7, 24] was 0. The “Surinam Grass plant response rating” value [7, 25] was 0, the “Plant response rating, Kochia” value [8, 18] was 100 and the “Plant response rating, Kochia” value [8, 19] was 0. The “Plant response rating, Kochia” value [8, 20] was 45, the “Plant response rating, Kochia” value [8, 21] was 45 and the “Kochia plant response rating” value [8, 22] was 50. The “Plant response rating, Kochia” value [8, 23] was 15, the “Plant response rating, Kochia” value [8, 24] was 100 and the “Kochia plant response rating” value [8, 25] was 100. The “Plant response rating, Lambsquarters” value [9, 18] was 100, the “Plant response rating, Lambsquarters” value [9, 19] was 0 and the “Plant response rating, Lambsquarters” value [9, 20] was 65. The “Plant response rating, Lambsquarters” value [9, 21] was 65, the “Lambsquarters plant response rating” value [9, 22] was 75 and the “Plant response rating, Lambsquarters” value [9, 23] was 100. The “Plant response rating, Lambsquarters” value [9, 24] was 100, the “Lambsquarters plant response rating” value [9, 25] was 100 and the “Plant response rating, Pigweed” value [10, 18] was 100. For the same substance, the “Plant response rating, Pigweed” value [10, 19] was 75, the “Plant response rating, Pigweed” value [10, 20] was 75 and the “Plant response rating, Pigweed” value [10, 21] was 90. The “Pigweed plant response rating” value [10, 22] was 98, the “Plant response rating, Pigweed” value [10, 23] was 100 and the “Plant response rating, Pigweed” value [10, 24] was 100. The “Pigweed plant response rating” value [10, 25] was 100, the “Plant response rating, Soybean” value [11, 18] was 30 and the “Plant response rating, Soybean” value [11, 19] was 60. For the same substance, the “Plant response rating, Soybean” value [11, 20] was 65, the “Plant response rating, Soybean” value [11, 21] was 75 and the “Soybean plant response rating” value [11, 22] was 85. For the same substance, the “Plant response rating, Soybean” value [11, 23] was 0, the “Plant response rating, Soybean” value [11, 24] was 0 and the “Soybean plant response rating” value [11, 25] was 20. The “Plant response rating, Velvetleaf” value [12, 18] was 100, the “Plant response rating, Velvetleaf” value [12, 19] was 70 and the “Plant response rating, Velvetleaf” value [12, 20] was 80. The “Plant response rating, Velvetleaf” value [12, 21] was 90, the “Velvetleaf plant response rating” value [12, 22] was 98 and the “Plant response rating, Velvetleaf” value [12, 23] was 40. For the same substance, the “Plant response rating, Velvetleaf” value [12, 24] was 85, the “Velvetleaf plant response rating” value [12, 25] was 100 and the “Plant response rating, Morningglory” value [13, 18] was 20. The “Plant response rating, Morningglory” value [13, 19] was 15, the “Plant response rating, Morningglory” value [13, 20] was 15 and the “Plant response rating, Morningglory” value [13, 21] was 15. For the same substance, the “Morningglory plant response rating” value [13, 22] was 20, the “Plant response rating, Morningglory” value [13, 24] was 0 and the “Morningglory plant response rating” value [13, 25] was 0. For the same substance, the “Plant response rating, Bromegrass, Downy” value [14, 18] was 0, the “Plant response rating, Bromegrass, Downy” value [14, 19] was 0 and the “Plant response rating, Bromegrass, Downy” value [14, 20] was 0. The “Plant response rating, Bromegrass, Downy” value [14, 21] was 5, the “Bromegrass, Downy plant response rating” value [14, 22] was 5 and the “Plant response rating, Bromegrass, Downy” value [14, 23] was 0. For the same substance, the “Plant response rating, Bromegrass, Downy” value [14, 24] was 0, the “Bromegrass, Downy plant response rating” value [14, 25] was 0 and the “Plant response rating, Corn” value [15, 18] was 0. For the same substance, the “Plant response rating, Corn” value [15, 19] was 0, the “Plant response rating, Corn” value [15, 20] was 0 and the “Plant response rating, Corn” value [15, 21] was 0. For the same substance, the “Corn plant response rating” value [15, 22] was 10, the “Plant response rating, Corn” value [15, 23] was 0 and the “Plant response rating, Corn” value [15, 24] was 0. The “Corn plant response rating” value [15, 25] was 0, the “Plant response rating, Foxtail, Green” value [16, 18] was 0 and the “Plant response rating, Foxtail, Green” value [16, 19] was 5. For the same substance, the “Plant response rating, Foxtail, Green” value [16, 20] was 20, the “Plant response rating, Foxtail, Green” value [16, 21] was 30 and the “Foxtail, Green plant response rating” value [16, 22] was 40. For the same substance, the “Plant response rating, Foxtail, Green” value [16, 23] was 0, the “Plant response rating, Foxtail, Green” value [16, 24] was 0 and the “Foxtail, Green plant response rating” value [16, 25] was 0. For the same substance, the “Plant response rating, Cupgrass, Woolly” value [17, 18] was 45, the “Plant response rating, Cupgrass, Woolly” value [17, 19] was 0 and the “Plant response rating, Cupgrass, Woolly” value [17, 20] was 50. The “Plant response rating, Cupgrass, Woolly” value [17, 21] was 50, the “Cupgrass, Woolly plant response rating” value [17, 22] was 65 and the “Plant response rating, Cupgrass, Woolly” value [17, 23] was 0. For the same substance, the “Plant response rating, Cupgrass, Woolly” value [17, 24] was 0 and the “Cupgrass, Woolly plant response rating” value [17, 25] was 0.
